# Reference: ChEMBL document CHEMBL3886380, “Oxazole derivatives useful as modulators of FAAH” (2015)
# Target: T1, Fatty-acid amide hydrolase 1 (Homo sapiens, UniProt O00519)
# T1 sequence (O00519 whole entry): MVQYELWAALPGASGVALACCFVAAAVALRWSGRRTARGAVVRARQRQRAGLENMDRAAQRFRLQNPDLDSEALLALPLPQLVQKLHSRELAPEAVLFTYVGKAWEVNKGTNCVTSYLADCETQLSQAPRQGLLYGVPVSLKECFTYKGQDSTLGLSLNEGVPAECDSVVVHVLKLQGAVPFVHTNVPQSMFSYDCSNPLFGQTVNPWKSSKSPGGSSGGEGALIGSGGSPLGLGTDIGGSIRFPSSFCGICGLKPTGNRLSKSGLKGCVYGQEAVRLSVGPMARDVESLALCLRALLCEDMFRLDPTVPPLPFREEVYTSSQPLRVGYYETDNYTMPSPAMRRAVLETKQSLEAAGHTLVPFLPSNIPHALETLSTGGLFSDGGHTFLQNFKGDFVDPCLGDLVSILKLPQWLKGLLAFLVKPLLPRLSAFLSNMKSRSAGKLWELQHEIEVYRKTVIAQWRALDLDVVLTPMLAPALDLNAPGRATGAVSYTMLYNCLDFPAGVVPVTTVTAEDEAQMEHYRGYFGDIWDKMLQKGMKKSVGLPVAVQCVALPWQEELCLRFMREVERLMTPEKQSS
# Experiment: FAAH Assay: Enzyme activity was demonstrated in a radioenzymatic test based on measuring the product of hydrolysis (ethanolamine [3]H) of anandamide [ethanolamine 1-^3H] (American Radiolabeled Chemicals; 1 mCi/ml) with FAAH (Life Sciences (1995), 56, 1999-2005 and Journal of Pharmacology and Experimented Therapeutics (1997), 283, 729-734), Analytical. Biochemistry (2003), 318, 270-5. In …
row,SMILES,IC50 [µM]
1,C[N+]1(C)CCN(c2ccc(-c3nc(C4CCOCC4)oc3Sc3ccc(Cl)cc3)cn2)CC1,9.15
2,CN1CCN(CCOC(=O)N2CCC(c3nc(-c4ccc([S+](C)[O-])cc4)c(Sc4ccc(Cl)cn4)o3)CC2)CC1 (configuration not stated),3.09
